{"source": "patent US6136327A", "about": "“Stereospecific delivery of a drug using electrotransport” (priority 1997, dated 2000)", "key": {"clinical": {"assay": "clinical", "conditions": "in vivo; for AUC(0-inf): AUCinf", "description": "A study was performed in order to compare the pharmacokinetic parameters of R- and S-ketorolac following intravenous, passive transdermal and electrotransport administration of a racemic mixture of ketorolac.\nTwelve healthy male volunteers were enrolled in a pilot feasibility study. Subjects were required to undergo a pre-study screening to evaluate whether they met study inclusion or exclusion criteria. Screening procedures included a medical history, physical exam, electrocardiogram and clinical laboratory tests.\nThe study was an open-label, randomized, three-treatment crossover pharmacokinetics study designed to compare plasma ketorolac concentrations during 24-hour treatment regimens with an electrotransport system (\"ETS\"), a (passive) therapeutic transdermal system (\"TTS\") and intravenous ketorolac bolus injection.\nThe ketorolac treatments are listed below; there was a washout period of at least 6 days between treatments.\nDuring the ETS (ketorolac) treatment, each subject was expected to receive an estimated 26 mg of ketorolac free acid over a 24-hour period, delivered by electrotransport from a total cathode area of 18 cm^2, based on an estimated in vitro flux rate of 60 μg/cm^2 /h.\nThree electrotransport systems, with a total cathode gel area of 18 cm^2, were applied to the upper arms of each subject in this study. Each of the three controllers was set to provide a total direct current of 0.6 mA, which maintained a current density of 100 μA/cm^2.\nDuring TTS treatment, each subject was expected to receive an estimated 50 mg of ketorolac free acid over a 24-hour period, delivered passively through the skin from a total application area of 75 cm^2 based on an estimated in vitro flux rate of 25 to 30 μg/cm^2 /h.\nThe TTS systems were produced with a backing and protective liner in a 25 cm^2 size. The system formulation contained drug (free acid), ethylene vinyl acetate (40% vinyl acetate), glycerol monolaurate, and Ceraphyl® 31. Three TTS monoliths, with a total surface area of 75 cm^2, were used to deliver the drug. The combined systems contained 135 mg of ketorolac free acid. Because the systems were not self-adhesive, an adhesive overlay was required to ensure good skin contact.\nDuring the intravenous bolus treatment, each subject received a total of 24 mg of ketorolac free acid (36 mg of ketorolac tromethamine salt). Drug was delivered by IV bolus injections of 12 mg of ketorolac free acid (18 mg of ketorolac tromethamine salt) which were administered at Hour 0 and at Hour 12. A 1 mL aliquot of each ketorolac solution was retained directly after syringe preparation and prior to injection.\nInitially either the ETS or the TTS was applied, or the first intravenous injection was administered. ETS and TTS treatments continued for 24 hours, and the bolus treatment was completed after the second dose at 12 hours. Blood and urine samples were collected at intervals during a 48-hour period after initiation of each ketorolac treatment regimen.\nBlood samples, 7 mL each, were collected from each subject at intervals during the 48 hour period after initiation of treatment.\nPlasma levels of ketorolac were determined by HPLC assay, performed at the Clinical Pharmacology Division of the School of Medicine at Indiana University, Wishard Memorial Hospital, Indianapolis, Ind.\nActual blood sample collection times were used for all calculations and data were summarized by nominal sampling times. Plasma ketorolac concentrations below the assay quantification limit of 20 ng/mL were assigned a value of zero."}, "[1]": {"conditions": "in vivo", "description": "The transport of the R- and S-isomers of ketorolac was evaluated using passive transdermal delivery and electrotransport, in a study conducted in healthy volunteers. Intravenous bolus administration of 24 mg racemic ketorolac served as the reference treatment. The relative amounts of R- and S-ketorolac absorbed following passive transdermal and electrotransport administration were determined relative to intravenous R- and S-ketorolac clearance (assuming that the racemic ketorolac contained equal amounts of the R- and S-isomers)."}, "[2]": {"conditions": "in vivo; cited from earlier work"}, "[3]": {"conditions": "transdermal; cited from earlier work"}}, "data": [{"compound": "O=C(c1ccccc1)c1ccc2n1CC[C@H]2C(=O)O", "note": "[R-ketorolac]", "values": [{"measurement": "Plasma Ketorolac Concentrations", "setting": "clinical; human, 60 min", "value": 0.0, "unit": "ng/mL"}, {"measurement": "Plasma Ketorolac Concentrations", "setting": "clinical; human, 90 min", "value": 0.0, "unit": "ng/mL"}, {"measurement": "Plasma Ketorolac Concentrations", "setting": "clinical; human, 240 min", "value": 0.0, "unit": "ng/mL"}, {"measurement": "Plasma Ketorolac Concentrations", "setting": "clinical; human, 360 min", "value": 0.0, "unit": "ng/mL"}, {"measurement": "Plasma Ketorolac Concentrations", "setting": "clinical; human, 480 min", "value": 0.0, "unit": "ng/mL"}, {"measurement": "Plasma Ketorolac Concentrations", "setting": "clinical; human, 720 min", "value": 0.0, "unit": "ng/mL"}, {"measurement": "Plasma Ketorolac Concentrations", "setting": "clinical; human, 960 min", "value": 0.0, "unit": "ng/mL"}, {"measurement": "Plasma Ketorolac Concentrations", "setting": "clinical; human, 1680 min", "value": 0.0, "unit": "ng/mL"}, {"measurement": "Plasma Ketorolac Concentrations", "setting": "clinical; human, 1920 min", "value": 0.0, "unit": "ng/mL"}, {"measurement": "Plasma Ketorolac Concentrations", "setting": "clinical; human, 2880 min", "value": 0.0, "unit": "ng/mL"}, {"measurement": "AUC(0-inf)", "setting": "clinical; human", "value": 5640, "unit": "ng·h/mL"}, {"measurement": "AUC inf", "setting": "clinical; human, iv", "value": 6171, "unit": "ng·h/mL"}, {"measurement": "Apparent elimination rate constant (k)", "setting": "clinical; human, iv", "value": 0.125, "unit": "h⁻¹"}, {"measurement": "Apparent half-life (t1/2)", "setting": "clinical; human, iv", "value": 4.3, "unit": "h"}, {"measurement": "C max", "setting": "clinical; human, iv", "value": 872, "unit": "ng/mL"}, {"measurement": "K2 (elimination rate constant)", "setting": "clinical; human, iv", "value": 0.15, "unit": "h⁻¹"}, {"measurement": "Volume", "setting": "clinical; human, iv", "value": 5.4, "unit": "L"}, {"measurement": "Plasma Ketorolac Concentrations", "setting": "clinical; human, iv, 720 min", "value": 0.0, "unit": "ng/mL"}, {"measurement": "Plasma Ketorolac Concentrations", "setting": "clinical; human, iv, 14 h", "value": 386.0, "unit": "ng/mL"}, {"measurement": "AUC(0-inf)", "setting": "clinical; human, iv", "value": 6250, "unit": "ng·h/mL"}, {"measurement": "k el", "setting": "clinical; human, iv, Apparent elimination rate constant (k)", "value": "3.89e-05", "unit": "s⁻¹"}, {"measurement": "half-life", "setting": "clinical; human, iv, Apparent half-life (t1/2)", "value": 5, "unit": "h"}, {"measurement": "Plasma Ketorolac Concentrations", "setting": "clinical; human, topical or ocular, 1.5 h", "value": 37.0, "unit": "ng/mL"}, {"measurement": "Plasma Ketorolac Concentrations", "setting": "clinical; human, topical or ocular, 12 h", "value": 67.0, "unit": "ng/mL"}, {"measurement": "Plasma Ketorolac Concentrations", "setting": "clinical; human, topical or ocular, 20 h", "value": 29.0, "unit": "ng/mL"}, {"measurement": "Plasma Ketorolac Concentrations", "setting": "clinical; human, topical or ocular, 24.5 h", "value": 211.0, "unit": "ng/mL"}, {"measurement": "plasma concentrations during TTS compared with ETS", "setting": "clinical", "value": "lower than those observed during ETS administration"}, {"measurement": "Amount Delivered (AD), ETS/IV (amount absorbed)", "setting": "clinical; iv", "value": 7.9, "unit": "mg"}, {"measurement": "Amount Delivered (AD), TTS/IV (amount absorbed)", "setting": "clinical; iv", "value": 4.96, "unit": "mg"}, {"measurement": "K1 (distribution rate constant)", "setting": "clinical; iv", "value": 1.54, "unit": "h⁻¹"}, {"measurement": "T max", "setting": "clinical; iv", "value": 0.5, "unit": "h"}, {"measurement": "clearance, R- vs S-ketorolac", "setting": "clinical; iv", "value": "differed"}]}, {"compound": "O=C(c1ccccc1)c1ccc2n1CC[C@@H]2C(=O)O", "note": "[S-ketorolac]", "values": [{"measurement": "Plasma Ketorolac Concentrations", "setting": "clinical; human, 60 min", "value": 0.0, "unit": "ng/mL"}, {"measurement": "Plasma Ketorolac Concentrations", "setting": "clinical; human, 90 min", "value": 0.0, "unit": "ng/mL"}, {"measurement": "Plasma Ketorolac Concentrations", "setting": "clinical; human, 360 min", "value": 0.0, "unit": "ng/mL"}, {"measurement": "Plasma Ketorolac Concentrations", "setting": "clinical; human, 480 min", "value": 0.0, "unit": "ng/mL"}, {"measurement": "Plasma Ketorolac Concentrations", "setting": "clinical; human, 720 min", "value": 0.0, "unit": "ng/mL"}, {"measurement": "Plasma Ketorolac Concentrations", "setting": "clinical; human, 960 min", "value": 0.0, "unit": "ng/mL"}, {"measurement": "Plasma Ketorolac Concentrations", "setting": "clinical; human, 1200 min", "value": 0.0, "unit": "ng/mL"}, {"measurement": "Plasma Ketorolac Concentrations", "setting": "clinical; human, 1440 min", "value": 0.0, "unit": "ng/mL"}, {"measurement": "Plasma Ketorolac Concentrations", "setting": "clinical; human, 1470 min", "value": 0.0, "unit": "ng/mL"}, {"measurement": "Plasma Ketorolac Concentrations", "setting": "clinical; human, 1500 min", "value": 0.0, "unit": "ng/mL"}, {"measurement": "Plasma Ketorolac Concentrations", "setting": "clinical; human, 1560 min", "value": 0.0, "unit": "ng/mL"}, {"measurement": "Plasma Ketorolac Concentrations", "setting": "clinical; human, 1680 min", "value": 0.0, "unit": "ng/mL"}, {"measurement": "AUC inf", "setting": "clinical; human, iv", "value": 1566, "unit": "ng·h/mL"}, {"measurement": "Apparent elimination rate constant (k)", "setting": "clinical; human, iv", "value": 0.41, "unit": "h⁻¹"}, {"measurement": "C max", "setting": "clinical; human, iv", "value": 404, "unit": "ng/mL"}, {"measurement": "K2 (elimination rate constant)", "setting": "clinical; human, iv", "value": 0.35, "unit": "h⁻¹"}, {"measurement": "T max", "setting": "clinical; human, iv", "value": 0.5, "unit": "h"}, {"measurement": "Volume", "setting": "clinical; human, iv", "value": 10.33, "unit": "L"}, {"measurement": "Plasma Ketorolac Concentrations", "setting": "clinical; human, iv, 240 min", "value": 0.0, "unit": "ng/mL"}, {"measurement": "Plasma Ketorolac Concentrations", "setting": "clinical; human, iv, 360 min", "value": 0.0, "unit": "ng/mL"}, {"measurement": "Plasma Ketorolac Concentrations", "setting": "clinical; human, iv, 480 min", "value": 0.0, "unit": "ng/mL"}, {"measurement": "Plasma Ketorolac Concentrations", "setting": "clinical; human, iv, 720 min", "value": 0.0, "unit": "ng/mL"}, {"measurement": "Plasma Ketorolac Concentrations", "setting": "clinical; human, iv, 14 h", "value": 113.0, "unit": "ng/mL"}, {"measurement": "Plasma Ketorolac Concentrations", "setting": "clinical; human, iv, 1080 min", "value": 0.0, "unit": "ng/mL"}, {"measurement": "Plasma Ketorolac Concentrations", "setting": "clinical; human, iv, 1200 min", "value": 0.0, "unit": "ng/mL"}, {"measurement": "Plasma Ketorolac Concentrations", "setting": "clinical; human, iv, 1440 min", "value": 0.0, "unit": "ng/mL"}, {"measurement": "AUC(0-inf)", "setting": "clinical; human, iv", "value": 1560, "unit": "ng·h/mL"}, {"measurement": "Plasma Ketorolac Concentrations", "setting": "clinical; human, topical or ocular, 16 h", "value": 58.0, "unit": "ng/mL"}, {"measurement": "Plasma Ketorolac Concentrations", "setting": "clinical; human, topical or ocular, 28 h", "value": 21.0, "unit": "ng/mL"}, {"measurement": "Amount Delivered (AD), ETS/IV (amount absorbed)", "setting": "clinical; iv", "value": 11.65, "unit": "mg"}, {"measurement": "Amount Delivered (AD), TTS/IV (amount absorbed)", "setting": "clinical; iv", "value": 4.76, "unit": "mg"}, {"measurement": "K1 (distribution rate constant)", "setting": "clinical; iv", "value": 2.10, "unit": "h⁻¹"}, {"measurement": "clearance, R- vs S-ketorolac", "setting": "clinical; iv", "value": "differed"}, {"measurement": "S/R ratio of amount absorbed, mean", "setting": "[1]", "value": 1.15}, {"measurement": "S/R ratio of amount absorbed, median", "setting": "[1]", "value": 1.18}, {"measurement": "S/R ratio of amount absorbed, range", "setting": "[1]", "value": "0.8-1.43"}, {"measurement": "clearance vs other enantiomer", "setting": "[2]", "value": "more rapid clearance than the other enantiomer"}]}, {"compound": "phenylpropanolamine", "values": [{"measurement": "flux rates of individual purified isomers", "setting": "[3]", "value": "nearly identical flux rates"}]}]}
